# Measured values reported in US10689408B2, “Bisphosphonic acid compound” (FUJIYAKUHIN CO., LTD., priority 2016, dated 2020).
# Test system: calcification in the aorta
# Assay: not given
# Details: dialysis patients; cited from earlier work
row,SMILES,inhibition of calcification in the aorta
1,"CC(O)(P(=O)(O)O)P(=O)(O)O [etidronate, Etidronate]",significantly inhibit calcification in the aorta

# Test system: carotid artery intima-media thicknesses
# Assay: not given
# Details: type 2 diabetic patients; cited from earlier work
row,SMILES,carotid artery intima-media thickness
1,"CC(O)(P(=O)(O)O)P(=O)(O)O [etidronate, Etidronate]",significantly decrease the carotid artery intima-media thicknesses

# Test system: Vitamin D3-Induced Vascular Calcification Rat Model
# Assay: Ectopic calcification inhibitory effect in vitamin D3-induced vascular calcification rat model (amount of aortic phosphorus)
# Assay type: in vivo, Male Wistar/ST rats
# Details: 336 h, dose 3 mg/kg, oral, once a day for 2 weeks, aortic phosphorus relative to control (vehicle), read-out: Rate of inhibition (%) of ectopic calcification
# Text: Test Example: Ectopic Calcification Inhibitory Effect in Vitamin D3-Induced Vascular Calcification Rat Model
# Male Wistar/ST rats were grouped according to their body weights as an index (6 individuals per group). Cholecalciferol (Wako Pure Chemical Industries, Ltd.) was subcutaneously administered at repeated doses of 125,000 IU/kg to each rat for 3 days to induce vascular calcification. Each test substance was orally administered at repeated doses once a day for 2 weeks from the day of administration of cholecalciferol. The rats were fasted from approximately 6 hours before the administration of the test substance to approximately 2 hours thereafter. On the day following the final administration, total blood was collected from the descending aorta of each rat under isoflurane anesthesia, and then, the aorta from the aortic root to the posterior limb bifurcation was excised. The aorta was chopped, then homogenized after adding 5 mL of 1 N hydrochloric acid and left at room temperature for 1 hour. After centrifugation at 15,000 rpm at 4° C. for 15 minutes, the obtained supernatant was used as a measurement sample. The amount of phosphorus in the measurement sample was measured using Phospha C-Test Wako (Wako Pure Chemical Industries, Ltd.) and used as an index for calcification. An average value of the amounts of aortic phosphorus in each group was determined to calculate the rate of inhibition of calcification by the administration of the test substance relative to a control (vehicle administration) (Table 7).
row,SMILES,inhibition in vivo at 3 mg/kg [%]
1,"O=P(O)(O)C(O)(CC1CC2CCC1C2)P(=O)(O)O (stereo not drawn) [Example 31, Disodium [2-(bicyclo[2.2.1]heptan-2-yl)-1-hydroxyethane-1,1-diyl]bisphosphonate]",29
2,"CC(C1CCCC1)C(O)(P(=O)(O)O)P(=O)(O)O (stereo not drawn) [Example 8, Disodium (2-cyclopentyl-1-hydroxypropane-1,1-diyl)bisphosphonate]",22

# Same assay, conditions: 336 h, dose 5 mg/kg, oral, once a day for 2 weeks, aortic phosphorus relative to control (vehicle), read-out: Rate of inhibition (%) of ectopic calcification
row,SMILES,inhibition in vivo at 5 mg/kg [%]
1,"CC1(CC(O)(P(=O)(O)O)P(=O)(O)O)CCCC1 [Example 11, Disodium [1-hydroxy-2-(1-methylcyclopentyl)ethane-1,1-diyl]bisphosphonate]",57
2,"C[C@H]1CC[C@H](CC(O)(P(=O)(O)O)P(=O)(O)O)C1 (relative stereo) [Example 17, Disodium {1-hydroxy-2-[(1R*,3R*)-3-methylcyclopentyl]ethane-1,1-diyl}bisphosphonate]",80
3,"O=P(O)(O)C(O)(CC1CCCCC1)P(=O)(O)O [Example 27, Disodium (2-cyclohexyl-1-hydroxyethane-1,1-diyl)bisphosphonate]",82
4,"CC1(C)CCC(CC(O)(P(=O)(O)O)P(=O)(O)O)C1 (stereo not drawn) [Example 21, Disodium [2-(3,3-dimethylcyclopentyl)-1-hydroxyethane-1,1-diyl]bisphosphonate]",68
5,"CC1CCCC1CC(O)(P(=O)(O)O)P(=O)(O)O (stereo not drawn) [Example 14, Disodium [1-hydroxy-2-(2-methylcyclopentyl)ethane-1,1-diyl]bisphosphonate]",29
6,"CC1(CC(O)(P(=O)(O)O)P(=O)(O)O)CCCCC1 [Example 30, Disodium [1-hydroxy-2-(1-methylcyclohexyl)ethane-1,1-diyl]bisphosphonate]",47
7,"CC1CCC(CC(O)(P(=O)(O)O)P(=O)(O)O)C1 (stereo not drawn) [Example 15, Disodium [1-hydroxy-2-(3-methylcyclopentyl)ethane-1,1-diyl]bisphosphonate]",87
8,"CCC1(CC(O)(P(=O)(O)O)P(=O)(O)O)CCCC1 [Example 12, Disodium [2-(1-ethylcyclopentyl)-1-hydroxyethane-1,1-diyl]bisphosphonate]",28
9,"C[C@@H]1C[C@@H](CC(O)(P(=O)(O)O)P(=O)(O)O)C[C@@H]1C [Example 25, Disodium {2-[(1s,3R,4S)-3,4-dimethylcyclopentyl]-1-hydroxyethane-1,1-diyl}bisphosphonate]",64
10,"CC1(C)CC(CC(O)(P(=O)(O)O)P(=O)(O)O)CC1(C)C [Example 26, Disodium [1-hydroxy-2-(3,3,4,4-tetramethylcyclopentyl)ethane-1,1-diyl]bisphosphonate]",66
11,"O=P(O)(O)C(O)(C=C1CCCC1)P(=O)(O)O [Example 7, Disodium (2-cyclopentylidene-1-hydroxyethane-1,1-diyl)bisphosphonate]",51
12,"CC1(CC(O)(P(=O)(O)O)P(=O)(O)O)CCC1 [Example 4, Disodium [1-hydroxy-2-(1-methylcyclobutyl)ethane-1,1-diyl]bisphosphonate]",39
13,"C[C@@H]1C[C@H](CC(O)(P(=O)(O)O)P(=O)(O)O)C[C@@H]1C [Example 24, Disodium {2-[(1r,3R,4S)-3,4-dimethylcyclopentyl]-1-hydroxyethane-1,1-diyl}bisphosphonate]",93
14,"C[C@H]1CC[C@@H](CC(O)(P(=O)(O)O)P(=O)(O)O)C1 (relative stereo) [Example 16, Disodium {1-hydroxy-2-[(1R*,3S*)-3-methylcyclopentyl]ethane-1,1-diyl}bisphosphonate]",75
15,"O=P(O)(O)C(O)(C[C@@H]1CC[C@@H](Oc2ccccc2)C1)P(=O)(O)O (relative stereo) [Example 20, Disodium {1-hydroxy-2-[(1R*,3R*)-3-phenoxycyclopentyl]ethane-1,1-diyl}bisphosphonate]",46
16,"CCCC1(CC(O)(P(=O)(O)O)P(=O)(O)O)CCCC1 [Example 13, Disodium [1-hydroxy-2-(1-propylcyclopentyl)ethane-1,1-diyl]bisphosphonate]",53
17,"O=P(O)(O)C(O)(CC1CCC(F)(F)C1)P(=O)(O)O (stereo not drawn) [Example 23, Disodium [2-(3,3-difluorocyclopentyl)-1-hydroxyethane-1,1-diyl]bisphosphonate]",43
18,"O=P(O)(O)C(O)(C[C@@H]1CC[C@@H](F)C1)P(=O)(O)O (relative stereo) [Example 18, Disodium {2-[(1R*,3R*)-3-fluorocyclopentyl]-1-hydroxyethane-1,1-diyl}bisphosphonate]",53
19,"CC1(C)CC(CC(O)(P(=O)(O)O)P(=O)(O)O)CC(C)(C)C1 [Example 35, Disodium [1-hydroxy-2-(3,3,5,5-tetramethylcyclohexyl)ethane-1,1-diyl]bisphosphonate]",71

# Same assay, conditions: 336 h, dose 10 mg/kg, oral, once a day for 2 weeks, aortic phosphorus relative to control (vehicle), read-out: Rate of inhibition (%) of ectopic calcification
row,SMILES,inhibition in vivo at 10 mg/kg [%]
1,"CC(C1CCC1)C(O)(P(=O)(O)O)P(=O)(O)O (stereo not drawn) [Example 3, Disodium (2-cyclobutyl-1-hydroxypropane-1,1-diyl)bisphosphonate]",64
2,"O=P(O)(O)C(O)(CC1CCCCCC1)P(=O)(O)O [Example 44, Disodium (2-cycloheptyl-1-hydroxyethane-1,1-diyl)bisphosphonate]",95

# Same assay, conditions: 336 h, dose 30 mg/kg, oral, once a day for 2 weeks, aortic phosphorus relative to control (vehicle), read-out: Rate of inhibition (%) of ectopic calcification
row,SMILES,inhibition in vivo at 30 mg/kg [%]
1,"CC(C1CCCCC1)C(O)(P(=O)(O)O)P(=O)(O)O (stereo not drawn) [Example 28, Disodium (2-cyclohexyl-1-hydroxypropane-1,1-diyl)bisphosphonate]",95
2,"O=P(O)(O)C(O)(CC1CCCC1)P(=O)(O)O [Example 6, Disodium (2-cyclopentyl-1-hydroxyethane-1,1-diyl)bisphosphonate]",95
